This test deals with T1, SIRT1 (Homo sapiens, UniProt Q96EB6).
T1 sequence (Q96EB6 1-747): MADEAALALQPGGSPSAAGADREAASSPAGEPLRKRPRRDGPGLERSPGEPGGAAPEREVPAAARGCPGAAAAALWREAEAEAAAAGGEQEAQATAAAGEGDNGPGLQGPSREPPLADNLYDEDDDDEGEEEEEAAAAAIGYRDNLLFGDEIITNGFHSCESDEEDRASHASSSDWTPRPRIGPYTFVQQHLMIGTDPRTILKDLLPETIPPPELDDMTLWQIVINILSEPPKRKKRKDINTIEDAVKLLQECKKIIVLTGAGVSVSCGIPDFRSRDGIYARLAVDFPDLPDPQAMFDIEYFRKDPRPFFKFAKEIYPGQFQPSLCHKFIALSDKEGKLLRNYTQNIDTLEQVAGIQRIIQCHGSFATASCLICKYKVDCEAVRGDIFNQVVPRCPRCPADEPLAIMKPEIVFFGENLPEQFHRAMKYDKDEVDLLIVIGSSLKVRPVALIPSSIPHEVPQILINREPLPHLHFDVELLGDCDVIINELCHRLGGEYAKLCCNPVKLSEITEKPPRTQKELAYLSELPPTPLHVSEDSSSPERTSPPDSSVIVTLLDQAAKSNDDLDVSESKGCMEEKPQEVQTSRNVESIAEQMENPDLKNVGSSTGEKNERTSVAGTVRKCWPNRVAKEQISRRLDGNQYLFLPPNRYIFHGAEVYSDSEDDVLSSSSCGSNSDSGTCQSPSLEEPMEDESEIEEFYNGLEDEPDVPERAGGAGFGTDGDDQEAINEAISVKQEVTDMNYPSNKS
Nature of the test: SIRT1 mass spectrometry (MS) based deacetylation assay. For FOLD ACT. MS: test concentration or dose not given here. In kind it is biochemical. The note with it: for EC50: SIRT1 activation, mass spectrometry assay, read-out: ED50 MS ASSAY; for FOLD ACT. MS: fold activation of SIRT1 as determined by MS.

Structures are written as SMILES.

Turning to `COc1cc(OC)cc(C(=O)Nc2ccccc2-c2nc3ccccc3[nH]2)c1` [Compound 141], the EC50 was less than 5 µM and the “FOLD ACT. MS” value is listed as “B (B (Fold Activation <250%))”.
`COc1ccc(C(=O)Nc2ccccc2-c2nc3ccccc3[nH]2)cc1OC` [Compound 142]: the EC50 is less than 5 µM and the “FOLD ACT. MS” value was “A (A (Fold activation >250%))”.
In the case of `COc1ccc(S(=O)(=O)Nc2ccccc2-c2nc3ccccc3[nH]2)cc1OC` [Compound 143], the EC50 was more than 150 µM.
As for `COc1cc(C(=O)Nc2sccc2-c2nc3ccccc3s2)cc(OC)c1OC` [Compound 144], the EC50 is more than 150 µM.
On to `COc1ccc(C(=O)Nc2sccc2-c2nc3ccccc3s2)cc1OC` [Compound 145], for which the EC50 is less than 5 µM and the “FOLD ACT. MS” value was “B (B (Fold Activation <250%))”.
On to `COc1cc(OC)cc(C(=O)Nc2sccc2-c2nc3ccccc3s2)c1` [Compound 146], for which the EC50 is less than 5 µM and the “FOLD ACT. MS” value is reported as “B (B (Fold Activation <250%))”.
With `S=C(Nc1ccc2c(c1)OCO2)Nc1cccc(-c2nc3ncccc3o2)n1` [Compound 147], the EC50 is more than 150 µM.
On the same count and under the same terms, the figure for `COc1ccc(C(=O)Nc2ccc(-c3nc4cccnc4[nH]3)cc2)c(OC)c1OC` [Compound 148] is more than 150 µM.
For the compound `COc1cc(C)ccc1C(=O)Nc1ccc(-c2nc3cccnc3[nH]2)cc1` [Compound 149], the EC50 was less than 5 µM and the “FOLD ACT. MS” value was “B (B (Fold Activation <250%))”.
For `COc1ccc(C(=O)Nc2ccc(-c3nc4cccnc4[nH]3)cc2)cc1OC` [Compound 150], the EC50 is less than 5 µM and the “FOLD ACT. MS” value is “B (B (Fold Activation <250%))”.
As for `COc1ccc(C(=O)Nc2ccc(-c3nc4cccnc4[nH]3)cc2)c(OC)c1` [Compound 151], the EC50 is more than 150 µM.
Regarding `COc1ccc(C(=O)Nc2ccc(-c3nc4ncccc4s3)cc2)c(OC)c1` [Compound 152], the EC50 was more than 150 µM.
With `COc1ccc(C(=O)Nc2cc(C(=O)NCCN(C)C)cc(-c3nc4ncccc4o3)c2)cc1OC` [Compound 153], the EC50 fell in the range of 5 to 50 µM and the “FOLD ACT. MS” value is given as “B (B (Fold Activation <250%))”.
Turning to `CN(C)CCNC(=O)c1cc(NC(=O)c2cccc(N(C)C)c2)cc(-c2nc3ncccc3o2)c1` [Compound 154], the EC50 was 101 to 150 µM and the “FOLD ACT. MS” value is listed as “A (A (Fold activation >250%))”.
As to `COc1ccc(C(=O)Nc2cc(C(=O)NCCN(C)C)cc(-c3nc4ncccc4o3)c2)c(OC)c1` [Compound 155], the EC50 lay in the range of 5 to 50 µM and the “FOLD ACT. MS” value is given as “B (B (Fold Activation <250%))”.
Taken in the same sequence, the figures for `COc1ccc(C(=O)Nc2cc(CN(C)C)cc(-c3nc4ncccc4o3)c2)cc1OC` [Compound 156] were 5 to 50 µM and “B (B (Fold Activation <250%))”.
As to `CN(C)Cc1cc(NC(=O)c2cccc(N(C)C)c2)cc(-c2nc3ncccc3o2)c1` [Compound 157], the EC50 was more than 150 µM and the “FOLD ACT. MS” value was “B (B (Fold Activation <250%))”.
As for `COc1ccc(C(=O)Nc2cc(CN(C)C)cc(-c3nc4ncccc4o3)c2)c(OC)c1` [Compound 158], the EC50 fell in the range of 5 to 50 µM and the “FOLD ACT. MS” value is listed as “B (B (Fold Activation <250%))”.
With `COc1ccc(C(=O)Nc2cc(CN3CCNCC3)cc(-c3nc4ncccc4o3)c2)cc1OC` [Compound 159], the EC50 lay in the range of 5 to 50 µM and the “FOLD ACT. MS” value was “B (B (Fold Activation <250%))”.
As to `CN(C)c1cccc(C(=O)Nc2cc(CN3CCNCC3)cc(-c3nc4ncccc4o3)c2)c1` [Compound 160], the EC50 was 51 to 100 µM and the “FOLD ACT. MS” value was “A (A (Fold activation >250%))”.
`COc1ccc(C(=O)Nc2cc(CN3CCNCC3)cc(-c3nc4ncccc4o3)c2)c(OC)c1` [Compound 161]: the EC50 fell in the range of 5 to 50 µM and the “FOLD ACT. MS” value is on record as “A (A (Fold activation >250%))”.
Turning to `COc1ccc(C(=O)Nc2ccccc2-c2nc3ccncc3s2)cc1OC` [Compound 162], the EC50 is less than 5 µM and the “FOLD ACT. MS” value is reported as “B (B (Fold Activation <250%))”.
`COc1cc(C(=O)Nc2ccccc2-c2nc3ccncc3s2)cc(OC)c1OC` [Compound 163]: the EC50 is less than 5 µM and the “FOLD ACT. MS” value is on record as “B (B (Fold Activation <250%))”.
As for `CN(C)Cc1ccc2oc(-c3cccc(NC(=O)c4cccc(N(C)C)c4)c3)nc2n1` [Compound 165], the EC50 is more than 150 µM and the “FOLD ACT. MS” value is reported as “A (A (Fold activation >250%))”.
As for `CN(C)c1cccc(C(=O)Nc2cccc(-c3nc4nc(CN5CCNCC5)ccc4o3)c2)c1` [Compound 166, 3-dimethylamino-N-[3-(5-piperazin-1-ylmethyl-oxazolo[4,5-b]pyridin-2-yl)-phenyl]-benzamide], the EC50 was 5 to 50 µM and the “FOLD ACT. MS” value was “B (B (Fold Activation <250%))”.
In the case of `Cc1ccc2oc(-c3cccc(NC(=O)c4cccc(N(C)C)c4)c3)nc2n1` [Compound 167], the EC50 lay in the range of 5 to 50 µM and the “FOLD ACT. MS” value was “B (B (Fold Activation <250%))”.
Take `CN(C(=O)Nc1ccccc1-c1nc2ccccc2[nH]1)c1ccccc1` [Compound 169]: the EC50 was less than 5 µM and the “FOLD ACT. MS” value is listed as “B (B (Fold Activation <250%))”.
Take `COc1cc(C(=O)Nc2cc(CN(C)C)cc(-c3nc4ccncc4s3)c2)cc(OC)c1OC` [Compound 174]: the EC50 fell in the range of 51 to 100 µM and the “FOLD ACT. MS” value was “A (A (Fold activation >250%))”.
As for `COc1ccc(C(=O)Nc2ccccc2-n2cccc2)cc1OC` [Compound 175], the EC50 was 51 to 100 µM and the “FOLD ACT. MS” value was “B (B (Fold Activation <250%))”.
With `COc1cc(C(=O)Nc2ccccc2-n2cccn2)cc(OC)c1OC` [Compound 176], the EC50 lay within 51 to 100 µM and the “FOLD ACT. MS” value is “B (B (Fold Activation <250%))”.
Taken in the same sequence, the figures for `COc1ccc(C(=O)Nc2ccccc2-n2cccn2)cc1OC` [Compound 177] were more than 150 µM and “B (B (Fold Activation <250%))”.
Consider `COc1ccc(C(=O)Nc2ccccc2-c2cn3cc(CN(C)C)sc3n2)cc1OC` [Compound 178], for which the EC50 lay within 5 to 50 µM and the “FOLD ACT. MS” value is “A (A (Fold activation >250%))”.
Taken in the same sequence, the figures for `COc1cc(C(=O)Nc2ccccc2-c2cn3cc(CN(C)C)sc3n2)cc(OC)c1OC` [Compound 179] were less than 5 µM and “A (A (Fold activation >250%))”.
As to `CN(C)c1cccc(C(=O)Nc2ccc(-c3nc4cccnc4[nH]3)cc2)c1` [Compound 180], the EC50 lay within 5 to 50 µM and the “FOLD ACT. MS” value is listed as “B (B (Fold Activation <250%))”.
In the case of `COc1ccc(C(=O)Nc2cccc(-c3nc4cccnc4[nH]3)c2)c(OC)c1OC` [Compound 181], the EC50 was less than 5 µM and the “FOLD ACT. MS” value was “A (A (Fold activation >250%))”.
Taken in the same sequence, the figures for `COc1cc(C)ccc1C(=O)Nc1cccc(-c2nc3cccnc3[nH]2)c1` [Compound 182] were less than 5 µM and “A (A (Fold activation >250%))”.
Take `CN(C)c1cccc(C(=O)Nc2cccc(-c3nc4ncccc4[nH]3)c2)c1` [Compound 183]: the EC50 lay within 5 to 50 µM and the “FOLD ACT. MS” value is “A (A (Fold activation >250%))”.
As to `COc1ccc(C(=O)Nc2cccc(-c3nc4ncccc4[nH]3)c2)c(OC)c1` [Compound 184], the EC50 was less than 5 µM and the “FOLD ACT. MS” value is “B (B (Fold Activation <250%))”.

(Values after US8044198B2, “Sirtuin modulating compounds” (Sirtris Pharmaceuticals, Inc., priority 2005, dated 2011).)
